Results published in the NIST ThermoML archive (doi:10.1016/j.jct.2004.04.003).
“And” between values parts separate entries of the source, which are not always exact repeats. Identical values can stand only once. Numbers after ± are expanded uncertainties.

Test: molar heat capacity at saturation pressure

**Q.** With `C1CCC(C2CCCC2)C1` [1,1'-bicyclopentyl] as the molecule, how does the molar heat capacity (120.99 K, Crystal 3, Vacuum adiabatic calorimetry) read?
**A.** 107.39 ± 0.31 J/K/mol

**Q.** And the molar heat capacity (126.75 K, Crystal 3, Vacuum adiabatic calorimetry)?
**A.** 111.08 ± 0.31 J/K/mol

**Q.** And the molar heat capacity (128.4 K, Crystal 1, Vacuum adiabatic calorimetry)?
**A.** 115.78 ± 0.32 J/K/mol

**Q.** What about the molar heat capacity (128.4 K, Crystal 3, Vacuum adiabatic calorimetry) of the same molecule?
**A.** 112.23 ± 0.32 J/K/mol

**Q.** What about the molar heat capacity (130 K, Crystal 1, Vacuum adiabatic calorimetry) of the same molecule?
**A.** 116.49 ± 0.32 J/K/mol

**Q.** And the molar heat capacity (133.46 K, Crystal 2, Vacuum adiabatic calorimetry)?
**A.** 118.05 ± 0.32 J/K/mol

**Q.** And the molar heat capacity (133.78 K, Crystal 2, Vacuum adiabatic calorimetry)?
**A.** 118.67 ± 0.32 J/K/mol

**Q.** And the molar heat capacity (134.12 K, Crystal 2, Vacuum adiabatic calorimetry)?
**A.** 118.41 ± 0.32 J/K/mol

**Q.** And the molar heat capacity (135.2 K, Crystal 2, Vacuum adiabatic calorimetry)?
**A.** 118.41 ± 0.32 J/K/mol

**Q.** And the molar heat capacity (139.41 K, Crystal 2, Vacuum adiabatic calorimetry)?
**A.** 121.01 ± 0.32 J/K/mol

**Q.** What about the molar heat capacity (140 K, Crystal 1, Vacuum adiabatic calorimetry) of the same molecule?
**A.** 121.32 ± 0.32 J/K/mol

**Q.** What about the molar heat capacity (142.47 K, Crystal 2, Vacuum adiabatic calorimetry) of the same molecule?
**A.** 122.75 ± 0.32 J/K/mol

**Q.** What about the molar heat capacity (143.12 K, Crystal 2, Vacuum adiabatic calorimetry) of the same molecule?
**A.** 122.93 ± 0.32 J/K/mol

**Q.** And the molar heat capacity (150 K, Crystal 1, Vacuum adiabatic calorimetry)?
**A.** 126.87 ± 0.32 J/K/mol

**Q.** What about the molar heat capacity (151.25 K, Crystal 2, Vacuum adiabatic calorimetry) of the same molecule?
**A.** 127.64 ± 0.32 J/K/mol

**Q.** And the molar heat capacity (152.11 K, Crystal 2, Vacuum adiabatic calorimetry)?
**A.** 128.17 ± 0.33 J/K/mol

**Q.** What about the molar heat capacity (160 K, Crystal 1, Vacuum adiabatic calorimetry) of the same molecule?
**A.** 133.12 ± 0.33 J/K/mol

**Q.** And the molar heat capacity (160.68 K, Crystal 2, Vacuum adiabatic calorimetry)?
**A.** 133.74 ± 0.34 J/K/mol

**Q.** And the molar heat capacity (160.78 K, Crystal 2, Vacuum adiabatic calorimetry)?
**A.** 133.46 ± 0.34 J/K/mol

**Q.** What about the molar heat capacity (166.89 K, Crystal 2, Vacuum adiabatic calorimetry) of the same molecule?
**A.** 138.79 ± 0.34 J/K/mol

**Q.** What about the molar heat capacity (170 K, Crystal 1, Vacuum adiabatic calorimetry) of the same molecule?
**A.** 140.08 ± 0.34 J/K/mol

**Q.** What about the molar heat capacity (171.5 K, Crystal 1, Vacuum adiabatic calorimetry) of the same molecule?
**A.** 141.19 ± 0.34 J/K/mol and 136.32 ± 0.33 J/K/mol

**Q.** What about the molar heat capacity (173.81 K, Crystal 1, Vacuum adiabatic calorimetry) of the same molecule?
**A.** 137.58 ± 0.34 J/K/mol

**Q.** And the molar heat capacity (178.13 K, Crystal 1, Vacuum adiabatic calorimetry)?
**A.** 139.77 ± 0.34 J/K/mol

**Q.** And the molar heat capacity (180 K, Crystal 1, Vacuum adiabatic calorimetry)?
**A.** 141.36 ± 0.34 J/K/mol

**Q.** And the molar heat capacity (181.67 K, Crystal 1, Vacuum adiabatic calorimetry)?
**A.** 142.75 ± 0.34 J/K/mol

**Q.** And the molar heat capacity (182.42 K, Crystal 1, Vacuum adiabatic calorimetry)?
**A.** 143.41 ± 0.34 J/K/mol

**Q.** What about the molar heat capacity (186.12 K, Crystal 1, Vacuum adiabatic calorimetry) of the same molecule?
**A.** 145.42 ± 0.35 J/K/mol

**Q.** What about the molar heat capacity (190 K, Crystal 1, Vacuum adiabatic calorimetry) of the same molecule?
**A.** 148.08 ± 0.35 J/K/mol

**Q.** And the molar heat capacity (190.41 K, Crystal 1, Vacuum adiabatic calorimetry)?
**A.** 148.06 ± 0.35 J/K/mol

**Q.** And the molar heat capacity (194.17 K, Crystal 1, Vacuum adiabatic calorimetry)?
**A.** 151.17 ± 0.35 J/K/mol

**Q.** And the molar heat capacity (200 K, Crystal 1, Vacuum adiabatic calorimetry)?
**A.** 155.66 ± 0.36 J/K/mol

**Q.** What about the molar heat capacity (202.37 K, Crystal 1, Vacuum adiabatic calorimetry) of the same molecule?
**A.** 157.69 ± 0.36 J/K/mol

**Q.** And the molar heat capacity (210 K, Crystal 1, Vacuum adiabatic calorimetry)?
**A.** 164.11 ± 0.37 J/K/mol

**Q.** And the molar heat capacity (210.53 K, Crystal 1, Vacuum adiabatic calorimetry)?
**A.** 164.59 ± 0.37 J/K/mol

**Q.** And the molar heat capacity (215.22 K, Crystal 1, Vacuum adiabatic calorimetry)?
**A.** 168.8 ± 0.37 J/K/mol

**Q.** And the molar heat capacity (218.83 K, Crystal 1, Vacuum adiabatic calorimetry)?
**A.** 172.67 ± 0.37 J/K/mol

**Q.** What about the molar heat capacity (220 K, Crystal 1, Vacuum adiabatic calorimetry) of the same molecule?
**A.** 173.41 ± 0.37 J/K/mol

**Q.** What about the molar heat capacity (223.28 K, Crystal 1, Vacuum adiabatic calorimetry) of the same molecule?
**A.** 177.54 ± 0.38 J/K/mol

**Q.** And the molar heat capacity (230 K, Crystal 1, Vacuum adiabatic calorimetry)?
**A.** 183.54 ± 0.38 J/K/mol

**Q.** What about the molar heat capacity (230.93 K, Crystal 1, Vacuum adiabatic calorimetry) of the same molecule?
**A.** 187.18 ± 0.39 J/K/mol

**Q.** And the molar heat capacity (235.7 K, Liquid, Vacuum adiabatic calorimetry)?
**A.** 209.39 ± 0.41 J/K/mol

**Q.** And the molar heat capacity (237.82 K, Crystal 1, Vacuum adiabatic calorimetry)?
**A.** 192.05 ± 0.39 J/K/mol

**Q.** And the molar heat capacity (237.82 K, Liquid, Vacuum adiabatic calorimetry)?
**A.** 210.18 ± 0.41 J/K/mol

**Q.** What about the molar heat capacity (240 K, Liquid, Vacuum adiabatic calorimetry) of the same molecule?
**A.** 211.02 ± 0.41 J/K/mol

**Q.** What about the molar heat capacity (242.86 K, Liquid, Vacuum adiabatic calorimetry) of the same molecule?
**A.** 212.18 ± 0.42 J/K/mol

**Q.** What about the molar heat capacity (250 K, Liquid, Vacuum adiabatic calorimetry) of the same molecule?
**A.** 215.09 ± 0.42 J/K/mol

**Q.** And the molar heat capacity (251.35 K, Liquid, Vacuum adiabatic calorimetry)?
**A.** 215.65 ± 0.42 J/K/mol

**Q.** What about the molar heat capacity (251.38 K, Liquid, Vacuum adiabatic calorimetry) of the same molecule?
**A.** 215.6 ± 0.42 J/K/mol

**Q.** And the molar heat capacity (260 K, Liquid, Vacuum adiabatic calorimetry)?
**A.** 219.43 ± 0.42 J/K/mol

**Q.** And the molar heat capacity (260.38 K, Liquid, Vacuum adiabatic calorimetry)?
**A.** 219.61 ± 0.42 J/K/mol

**Q.** What about the molar heat capacity (260.4 K, Liquid, Vacuum adiabatic calorimetry) of the same molecule?
**A.** 219.59 ± 0.42 J/K/mol

**Q.** And the molar heat capacity (269.99 K, Liquid, Vacuum adiabatic calorimetry)?
**A.** 224.12 ± 0.42 J/K/mol

**Q.** And the molar heat capacity (270 K, Liquid, Vacuum adiabatic calorimetry)?
**A.** 224.11 ± 0.42 J/K/mol

**Q.** What about the molar heat capacity (279.85 K, Liquid, Vacuum adiabatic calorimetry) of the same molecule?
**A.** 228.87 ± 0.43 J/K/mol

**Q.** And the molar heat capacity (280 K, Liquid, Vacuum adiabatic calorimetry)?
**A.** 228.97 ± 0.43 J/K/mol

**Q.** What about the molar heat capacity (289.97 K, Liquid, Vacuum adiabatic calorimetry) of the same molecule?
**A.** 234.24 ± 0.43 J/K/mol

**Q.** And the molar heat capacity (290 K, Liquid, Vacuum adiabatic calorimetry)?
**A.** 234.26 ± 0.43 J/K/mol

**Q.** And the molar heat capacity (298.15 K, Liquid, Vacuum adiabatic calorimetry)?
**A.** 238.69 ± 0.44 J/K/mol

**Q.** What about the molar heat capacity (300 K, Liquid, Vacuum adiabatic calorimetry) of the same molecule?
**A.** 239.71 ± 0.44 J/K/mol

**Q.** And the molar heat capacity (300.32 K, Liquid, Vacuum adiabatic calorimetry)?
**A.** 239.88 ± 0.44 J/K/mol

**Q.** And the molar heat capacity (303.62 K, Liquid, Vacuum adiabatic calorimetry)?
**A.** 241.76 ± 0.44 J/K/mol

**Q.** And the molar heat capacity (312.36 K, Liquid, Vacuum adiabatic calorimetry)?
**A.** 246.68 ± 0.45 J/K/mol

**Q.** And the molar heat capacity (320 K, Liquid, Vacuum adiabatic calorimetry)?
**A.** 251.11 ± 0.45 J/K/mol

**Q.** What about the molar heat capacity (321.76 K, Liquid, Vacuum adiabatic calorimetry) of the same molecule?
**A.** 252.14 ± 0.45 J/K/mol

**Q.** And the molar heat capacity (331.4 K, Liquid, Vacuum adiabatic calorimetry)?
**A.** 257.76 ± 0.46 J/K/mol

**Q.** What about the molar heat capacity (340 K, Liquid, Vacuum adiabatic calorimetry) of the same molecule?
**A.** 262.83 ± 0.47 J/K/mol

**Q.** What about the molar heat capacity (340.79 K, Liquid, Vacuum adiabatic calorimetry) of the same molecule?
**A.** 263.29 ± 0.47 J/K/mol

**Q.** And the molar heat capacity (350.44 K, Liquid, Vacuum adiabatic calorimetry)?
**A.** 269.11 ± 0.47 J/K/mol

**Q.** What about the molar heat capacity (360 K, Liquid, Vacuum adiabatic calorimetry) of the same molecule?
**A.** 274.85 ± 0.47 J/K/mol

**Q.** And the molar heat capacity (360.31 K, Liquid, Vacuum adiabatic calorimetry)?
**A.** 275.02 ± 0.47 J/K/mol

**Q.** And the molar heat capacity (369.98 K, Liquid, Vacuum adiabatic calorimetry)?
**A.** 281.03 ± 0.48 J/K/mol

**Q.** And the molar heat capacity (379.48 K, Liquid, Vacuum adiabatic calorimetry)?
**A.** 286.87 ± 0.49 J/K/mol

**Q.** What about the molar heat capacity (380 K, Liquid, Vacuum adiabatic calorimetry) of the same molecule?
**A.** 287.22 ± 0.49 J/K/mol

**Q.** What about the molar heat capacity (388.81 K, Liquid, Vacuum adiabatic calorimetry) of the same molecule?
**A.** 292.97 ± 0.49 J/K/mol

**Q.** What about the molar heat capacity (400 K, Liquid, Vacuum adiabatic calorimetry) of the same molecule?
**A.** 299.69 ± 0.5 J/K/mol

**Q.** What about the molar heat capacity (420 K, Liquid) of the same molecule?
**A.** 312.05 ± 3.1 J/K/mol

**Q.** What about the molar heat capacity (440 K, Liquid) of the same molecule?
**A.** 324.49 ± 3.2 J/K/mol

**Q.** And the molar heat capacity (460 K, Liquid)?
**A.** 336.88 ± 3.4 J/K/mol

**Q.** And the molar heat capacity (480 K, Liquid)?
**A.** 349.1 ± 3.5 J/K/mol

**Q.** What about the molar heat capacity (500 K, Liquid) of the same molecule?
**A.** 361.07 ± 3.6 J/K/mol

**Q.** What about the molar heat capacity (520 K, Liquid) of the same molecule?
**A.** 372.68 ± 3.7 J/K/mol

**Q.** And the molar heat capacity (540 K, Liquid)?
**A.** 383.83 ± 3.8 J/K/mol

**Q.** And the molar heat capacity (560 K, Liquid)?
**A.** 394.48 ± 3.9 J/K/mol

**Q.** And the molar heat capacity (580 K, Liquid)?
**A.** 404.71 ± 4 J/K/mol

**Q.** And the molar heat capacity (600 K, Liquid)?
**A.** 414.76 ± 4.1 J/K/mol
